According to patent US12329726B2, “Biomarkers for efficacy of prophylactic treatments against stress-induced affective disorders” (The Trustees of Columbia University in the City of New York, priority 2017, dated 2025):

What was measured:
[1] = test system: HPC metabolites; experiment: Untargeted metabolomic profiling of hippocampus (HPC), stressed mice (ketamine + CFC)
[2] = test system: mouse models of stress; settings: cited from earlier work
[3] = test system: HPC metabolites; experiment: Metabolomic profiling of HPC, non-stressed mice (ketamine, no shock); settings: context exposure group (no shock), following prophylactic ketamine administration
[4] = test system: 129S6/SvEvTac mice; experiment: 3-shock contextual fear conditioning (CFC), freezing; settings: ketamine 30 mg kg-1 i.p., single dose 1 week before 3-shock CFC; vs saline
[5] = test system: plasma amino acid-derived neurotransmitters and precursors; experiment: Separate plasma analysis of metabolites involved in neurotransmission, stressed mice; type: in vivo
[6] = test system: plasma metabolites; experiment: Metabolomic profiling of plasma, non-stressed mice (ketamine, no shock); settings: prophylactic ketamine, mice not administered shocks
[7] = test system: plasma metabolites; experiment: Untargeted metabolomic profiling of plasma, stressed mice (ketamine + CFC); settings: prophylactic ketamine + stress
[8] = test system: 129S6/SvEvTac mice; experiment: Context exposure without shocks (no-shock control), freezing; settings: ketamine 30 mg kg-1 i.p., 1 week before context exposure without shocks; vs saline
[9] = test system: PFC metabolites; experiment: Untargeted metabolomic profiling of prefrontal cortex (PFC), stressed mice (ketamine + CFC)
[10] = test system: treatment-resistant MDD (TRD) patients; settings: cited from earlier work
[11] = test system: PFC metabolites; experiment: Metabolomic profiling of PFC, non-stressed mice (ketamine, no shock)
[12] = target: T1, kappa-opioid receptor (KOR) (Rattus norvegicus, UniProt P34975); settings: administered before the FPS test; cited from earlier work
T1 construct: host or cells: live rats (behavioural test)

[13] = HPC, CFC group, following prophylactic ketamine administration
[14] = prophylactic ketamine + stress, MetaboAnalyst 3.0
[15] = single injection 30 mg kg-1, 1 week before a stressor
[16] = Plasma, CFC group, following prophylactic ketamine administration
[17] = PFC, CFC group, following prophylactic ketamine administration
[18] = prophylactic ketamine + stress, vs saline
[19] = ketamine 30 mg/kg without CFC stress

T1 sequence (P34975 whole entry): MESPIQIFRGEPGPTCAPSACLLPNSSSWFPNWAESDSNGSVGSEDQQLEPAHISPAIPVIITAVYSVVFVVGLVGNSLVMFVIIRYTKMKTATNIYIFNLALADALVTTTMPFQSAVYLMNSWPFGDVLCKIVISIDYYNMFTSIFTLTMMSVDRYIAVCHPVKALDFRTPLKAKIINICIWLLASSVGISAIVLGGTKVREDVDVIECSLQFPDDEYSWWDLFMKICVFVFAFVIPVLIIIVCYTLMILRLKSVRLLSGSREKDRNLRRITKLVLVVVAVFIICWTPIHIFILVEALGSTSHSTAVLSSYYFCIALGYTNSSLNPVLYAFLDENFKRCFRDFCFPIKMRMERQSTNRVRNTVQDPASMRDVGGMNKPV

CNC1(c2ccccc2Cl)CCCCC1=O (racemic) [ketamine, (RS)-2-(2-chlorophenyl)-2-(methylamino)cyclohexanone]
D-Alanine (Ala) level, change [1, 13]: Increase
Gamma-aminobuytric acid (GABA) level, change [1, 13]: Increase
L-Glutamic acid (Glu) level, change [1, 13]: Increase
O-Phosphoethanolamine (PE) level, change [1, 13]: Increase
Taurine (Tau) level, change [1, 13]: Increase
Pathway analysis of changed metabolites in the HPC: further pathways [1, 14]: altered alanine, aspartate, and glutamate metabolism; glutamine and glutamate metabolism; and taurine and hypotaurine metabolism
Pathway analysis of changed metabolites in the HPC: purine metabolism [1, 14]: purine metabolism was also significantly altered
Time window for prophylactic efficacy before a stressor ([2]; not 1 month or 1 hour before): approximately 1 week
Duration of protection after injection [2, 15]: up to 4 weeks
Stress-induced depressive-like behavior and social avoidance behavior [2, 15]: prevented stress-induced depressive-like behavior and social avoidance behavior
Taurine (Tau) level, change [3]: Increase
Fear response (freezing) during context re-exposure [4]: attenuated the fear response
Freezing behavior during CFC encoding (training) [4]: did not alter freezing behavior during CFC encoding
5-Hydroxy-L-tryptophan (5-HTP) level, change [5, 16]: Increase
D-Serine (Ser) level, change [5, 16]: Decrease
Gamma-aminobuytric acid (GABA) level, change [5, 16]: Decrease
L-Glutamic acid (Glu) level, change [5, 16]: Decrease
N-Acetyl-L-tyrosine (NALT) level, change [5, 16]: Decrease
O-Phosphoethanolamine (PE) level, change [5, 16]: Increase
Plasma serine and glutamic acid (excitatory neurotransmitters) ([5]; prophylactic ketamine + stress): serine and glutamic acid were decreased
Purine or pyrimidine metabolites in plasma, no shocks [6]: no changes in purines or pyrimidine metabolites were observed
Pathway analysis of changed metabolites in plasma [7]: purine metabolism, pyrimidine metabolism, the citrate cycle (TCA cycle), and the pentose phosphate pathway were most significantly changed
Ribose and ribulose phosphate (pentose phosphate pathway intermediates) in plasma [7]: significantly changed
Purine metabolites in the plasma ([7]; vs saline): significantly increased purine metabolites
Pyrimidine metabolites in the plasma ([7]; with the exception of 5,6-dihydrouridine): increased expression of pyrimidine metabolites
Freezing behavior during context exposure or re-exposure, no shocks [8]: did not alter freezing behavior during context exposure or re-exposure
D-Serine (Ser) level, change [9, 17]: Decrease
Glycine (Gly) level, change [9, 17]: Decrease
L-Tyrosine (Tyr) level, change [9, 17]: Decrease
Phenylalanine (Phe) level, change [9, 17]: Decrease
Correlation of dUDP expression in the PFC with freezing levels upon context re-exposure ([9]; mice given prophylactic ketamine prior to stress, regression analysis): positively correlated with freezing levels
Number of metabolites changed in the same direction in both hemispheres of the PFC and HPC ([9]; of the 8 changed, prophylactic ketamine + stress): 6 metabolites
Number of metabolites changed in both hemispheres of the PFC and HPC ([9]; prophylactic ketamine 30 mg kg-1 + CFC stressor, PFC and HPC): 8 metabolites
Pathway analysis of changed metabolites in the PFC [9, 14]: purine metabolism; phenylalanine, tyrosine, and tryptophan metabolism; and phenylalanine metabolism are most significantly changed
Levels of AMP and ATP in PFC, HPC and plasma ([9]; prophylactic ketamine + stress, both hemispheres of PFC and HPC, and plasma): increases levels of adenosine monophosphate (AMP) and ATP
Inhibitory neurotransmitter metabolites in PFC and HPC ([9]; prophylactic ketamine + stress, e.g. alanine, GABA, taurine): almost all inhibitory neurotransmitter metabolites were increased
Excitatory neurotransmitter metabolites in PFC and HPC ([9]; prophylactic ketamine + stress, e.g. serine, tyrosine, phenylalanine, exception glutamic acid): nearly all excitatory neurotransmitter metabolites were decreased
Adenosine and guanosine metabolites in both hemispheres of PFC and HPC [9, 18]: increased
Inosine metabolites in both hemispheres of PFC and HPC [9, 18]: decreased
Persistence of antidepressant effects ([10]; following a single infusion): 1-2 weeks
Antidepressant onset ([10]; single infusion, TRD patients): ≤ 2 h
Number of purine metabolites significantly altered in one hemisphere of PFC or HPC, no stress [11, 19]: 3 metabolites
Number of pyrimidines significantly altered in one hemisphere of PFC or HPC, no stress [11, 19]: 2
Purine metabolite changes in PFC and HPC without stress ([11]; prophylactic ketamine without stress): these changes were not observed
Amino acid-derived neurotransmitter metabolites in brain of non-stressed mice ([11]; prophylactic ketamine, non-stressed mice): only the inhibitory neurotransmitter metabolite taurine was changed

Oc1ccc2c3c1O[C@H]1c4[nH]c5c(c4C[C@@]4(O)[C@@H](C2)N(CC2CC2)CC[C@]314)C[C@@]1(O)[C@H]2Cc3ccc(O)c4c3[C@@]1(CCN2CC1CC1)[C@H]5O4 [norBNI, nor-binaltorphimine]
Conditioned fear in FPS test [12]: attenuated conditioned fear
